This note sets out measurements from article PMC8920379, “The discovery of berberine erythrocyte-hemoglobin self-assembly delivery system: a neglected carrier underlying its pharmacokinetics” (Drug Delivery, 2022).

The test system of the series is 30% erythrocytes. Put plainly: Berberine loading of erythrocytes (loading efficiency). In kind it is in vitro ADME, rats. To be noted: 37 °C, 2 h, n = 3. Here is the method:
The whole blood was collected from rats by orbital plexus vein and transferred into a blood-collection tube containing ethylene diamine tetraacetic acid (EDTA) as an anticoagulant. The whole blood was centrifuged at 3000 rpm for 10 min. The plasma and the buffy coat in the supernatant were removed by aspiration, and erythrocytes were washed three times in cold phosphate buffer saline (PBS) and centrifuged for 10 min at 3000 rpm, and then resuspended in an appropriate volume of PBS.
In order to determine the effect of BBR concentration on loading efficiency, different concentrations (1.000, 0.100, 0.010 and 0.001 M) of BBR were comparatively used at 37 °C for fixed incubation time (2 h) to obtain the more suitable concentration for the loading process. The hematocrite of washed erythrocytes was adjusted by PBS to 30%. In the 5-mL Eppendorf tubes, 1 mL of 30% erythrocytes was added to 1 mL PBS containing the known concentration of the agent. The final concentrations of BBR in the reaction system were […] (185, 18.5, 1.85 and 0.185 μg/mL), respectively. The mixtures were gently mixed to avoid hemolysis and incubated for 2 h at 37 °C. After incubation, the erythrocytes suspension was centrifuged for 10 min at 3000 rpm and the supernatant was collected.
In order to verify the binding system, the supernatant was analyzed by quantifying the amount of unbound BBR through HPLC. In order to offset this effect, an internal standard method was employed in this study and piperine was chosen as the internal standard substance (200 μg/mL). Different known concentrations (500.00, 100.00, 20.00, 4.00, 0.80, 0.16 μg/mL) of BBR and piperine were used to create the standard curve. The peak area of each concentration with the concentration of piperine was measured 3 times. And then, the calibration curves were prepared using linear regression of known drug concentration versus peak area. The unknown concentration of BBR was analyzed by the regressed equation: y = a(x) + b. While y is the peak area ratio of BBR and piperine, a is the slope, b is the y-intercept, and x is the concentration of BBR.
After incubation, acetonitrile was added to the different incubated solutions for protein precipitation. The mixtures were centrifuged at 8000 rpm for 10 min. The supernatants were collected and dried. The eluates were concentrated and re-dissolved for analysis. The loading efficiency was calculated according to the following formula: Loading efficiency (%) = [(Moriginal drug−Mdrug after incubation)/Moriginal drug] ×100%

[1] abbreviates: BBR 0.185 μg/mL in BBR-erythrocyte system.
Where [2] appears, read: BBR 1.850 μg/mL in BBR-erythrocyte system.
Setting [3] is: BBR 18.500 μg/mL in BBR-erythrocyte system.

Each structure is given as a SMILES string. Several values for one entry are separate records, joined by “and”; a condition that tells them apart may be missing. Identical values can stand only once.

For `COc1ccc2cc3[n+](cc2c1OC)CCc1cc2c(cc1-3)OCO2` [BBR, Berberine], the “Extracellular BBR concentration after incubation” value (from here on “Extracellular BBR concentration”) under setting [1] amounted to 0 ± 0.051 µg/mL, the “Extracellular BBR concentration” value under setting [2] was found to be 0.115 ± 0.072 µg/mL and the “Extracellular BBR concentration” value under setting [3] is 2.288 ± 0.105 µg/mL. For the same compound, the Loading percentage is 100% and 100 ± 19.84% under setting [1]; 95.528 ± 2.622% under setting [2]; 88.772 ± 0.410% under setting [3].
